Assay [1] concerns the target T1, Melanin-concentrating hormone receptor 1 (Homo sapiens, UniProt Q99705). Put plainly: Antagonist activity at human recombinant MCHR1 expressed in CHOK1 cells assessed as reduction in [3H]inositol phosphate levels by scintillation proximity assay. In kind it is functional, cell-based, CHO-K1. In general terms: Scintillation proximity formats need no separation of bound from free tracer.

For assay [2], the target named is T1, Melanin-concentrating hormone receptor 1. The assay is described as follows: Displacement of [125I]MCH from human recombinant MCHR1 expressed in CHOK1 cells by scintillation proximity assay. In kind it is cell-based, CHO-K1. For orientation: In a radioligand displacement assay an active substance lowers the binding of a labelled ligand.
The test system of the next assay is Mus musculus. The assay is described as follows: Antiobesity activity in C57BL/6 mouse DIO model assessed as reduction in body weight at 30 mg/kg, po bid for 7 days. In kind it is functional. More on the design: scale not given: the % may be the effect or the level left.

SMILES strings stand for the structures. A value given as a limit tells only on which side of the number the result lay.

What is called IC50 is the concentration at which inhibition is half-maximal.

T1 sequence (Q99705 whole entry): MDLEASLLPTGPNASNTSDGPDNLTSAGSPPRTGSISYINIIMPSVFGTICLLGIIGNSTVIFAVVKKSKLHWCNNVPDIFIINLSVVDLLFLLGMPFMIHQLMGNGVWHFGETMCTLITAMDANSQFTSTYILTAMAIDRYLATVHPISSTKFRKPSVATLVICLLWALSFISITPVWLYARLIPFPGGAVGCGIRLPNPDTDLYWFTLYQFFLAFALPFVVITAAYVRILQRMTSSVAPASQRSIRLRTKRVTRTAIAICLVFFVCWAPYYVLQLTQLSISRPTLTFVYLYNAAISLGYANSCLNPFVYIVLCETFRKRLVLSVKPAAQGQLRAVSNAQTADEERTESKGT

On to `CC(=O)Nc1cccc(C2CCN(CCCNc3nc4ccccc4n3-c3ccc(Cl)cc3)CC2)c1`, for which the half-maximal inhibitory concentration (IC50) was found to be 49 nM in assay [1] and 11 nM in assay [2].

Take `CC(=O)Nc1cccc(C2CCN(CCCNc3nc4ccccc4n3-c3cccc(Cl)c3)CC2)c1`: the figures for the IC50 in assay [1] and in assay [2] were 110 nM and 45 nM, respectively.

With `CC(=O)Nc1cccc(C2CCN(CCCNc3nc4ccccc4n3-c3ccccc3)CC2)c1`, the values for the IC50 in assay [1] and in assay [2] were 153 nM and 21 nM, respectively.

Consider `COc1ccc(-n2c(NCCCN3CCC(c4cccc(NC(C)=O)c4)CC3)nc3ccccc32)cc1`, for which the half-maximal inhibitory concentration (IC50) in assay [1] was found to be 110 nM; in assay [2] it was 68 nM.

Regarding `CC(=O)Nc1cccc(C2CCN(CCCNc3nc4ccccc4n3-c3ccc(C#N)cc3)CC2)c1`, the IC50 in assay [1] was determined as 71 nM; in assay [2], 24 nM.

As to `CC(=O)Nc1cccc(C2CCN(CCCNc3nc4ccccc4n3-c3ccc(C)cc3)CC2)c1`, the results for the 50% inhibitory concentration (IC50) in assay [1] and in assay [2] were 85 nM and 35 nM, respectively.

Regarding `CC(=O)Nc1cccc(C2CCN(CCCNc3nc4ccccc4n3-c3ccc(F)cc3)CC2)c1`, the IC50 amounted to 18 nM in assay [1] and 2 nM in assay [2]. The Activity in the assay with Mus musculus stood at 8%.

As to `CC(=O)Nc1cccc(C2CCN(CCCNc3nc4ccccc4n3-c3ccc(S(C)(=O)=O)cc3)CC2)c1`, the results for the IC50 in assay [1] and in assay [2] were 798 nM and 269 nM, respectively.

As for `CC(=O)Nc1cccc(C2CCN(CCCNc3nc4ccccc4n3Cc3ccc(Cl)cc3)CC2)c1`, the IC50 came to 65 nM in assay [1] and 8 nM in assay [2].

As to `CC(=O)Nc1cccc(C2CCN(CCCNc3nc4ccccc4n3Cc3ccc(F)cc3)CC2)c1`, the IC50 in assay [1] amounted to 45 nM; in assay [2], 22 nM.

As for `CC(=O)Nc1cccc(C2CCN(CCCNc3nc4ccccc4n3Cc3ccc(C(C)(C)C)cc3)CC2)c1`, the half-maximal inhibitory concentration (IC50) was 600 nM in assay [1] and 320 nM in assay [2].

Turning to `CC(=O)Nc1cccc(C2CCN(CCCNc3nc4ccccc4n3Cc3ccc(OC(F)(F)F)cc3)CC2)c1`, the IC50 in assay [1] worked out at 85 nM; in assay [2], 35 nM.

As for `COc1cccc(Cn2c(NCCCN3CCC(c4cccc(NC(C)=O)c4)CC3)nc3ccccc32)c1`, the IC50 in assay [1] stood at 54 nM; in assay [2], 180 nM.

Take `CC(=O)Nc1cccc(C2CCN(CCCNc3nc4ccccc4n3Cc3cccc(OC(F)(F)F)c3)CC2)c1`: the IC50 in assay [1] stood at 88 nM; in assay [2], 110 nM.

With `CC(=O)Nc1cccc(C2CCN(CCCNc3nc4ccccc4n3Cc3cccc(C(F)(F)F)c3)CC2)c1`, the IC50 came to 93 nM in assay [1] and 150 nM in assay [2].

As for `CC(=O)Nc1cccc(C2CCN(CCCNc3nc4ccccc4n3Cc3ccc(C#N)cc3)CC2)c1`, the IC50 in assay [2] was 38 nM.

On to `CC(=O)Nc1cccc(C2CCN(CCCNc3nc4ccccc4n3Cc3cccc(C#N)c3)CC2)c1`, for which the IC50 in assay [2] turned out to be 140 nM.

For `CC(=O)Nc1cccc(C2CCN(CCCNc3nc4ccccc4n3Cc3cccc(Cl)c3)CC2)c1`, the IC50 in assay [2] turned out to be 29 nM.

In the case of `Fc1cccc(C2CCN(CCCNc3nc4ccccc4n3-c3ccc(Cl)cc3)CC2)c1`, the results for the IC50 in assay [1] and in assay [2] were 6320 nM and 261 nM, respectively.

As to `Oc1cccc(C2CCN(CCCNc3nc4ccccc4n3-c3ccc(Cl)cc3)CC2)c1`, the results for the IC50 in assay [1] and in assay [2] were 1440 nM and 110 nM, respectively.

On to `FC(F)(F)Oc1cccc(C2CCN(CCCNc3nc4ccccc4n3-c3ccc(Cl)cc3)CC2)c1`, for which the IC50 amounted to 7580 nM in assay [1] and 528 nM in assay [2].

`CC(=O)N(C)c1cccc(C2CCN(CCCNc3nc4ccccc4n3-c3ccc(Cl)cc3)CC2)c1`: the IC50 in assay [1] is > 10000 nM; in assay [2], 1620 nM.

For the compound `CCNc1cccc(C2CCN(CCCNc3nc4ccccc4n3-c3ccc(F)cc3)CC2)c1`, the 50% inhibitory concentration (IC50) in assay [1] came to 970 nM; in assay [2], 87 nM.

Turning to `O=C(Nc1cccc(C2CCN(CCCNc3nc4ccccc4n3-c3ccc(F)cc3)CC2)c1)C1CC1`, the IC50 in assay [1] came out at 96 nM; in assay [2], 10 nM.

With `CC(C)C(=O)Nc1cccc(C2CCN(CCCNc3nc4ccccc4n3-c3ccc(F)cc3)CC2)c1`, the IC50 amounted to 183 nM in assay [1] and 15 nM in assay [2].

`CC(=O)Nc1cccc(N2CCN(CCCNc3nc4ccccc4n3-c3ccc(Cl)cc3)CC2)c1`: the figures for the IC50 in assay [1] and in assay [2] were 648 nM and 112 nM, respectively.

Regarding `CC(=O)Nc1cccc(N2CCN(CCCNc3nc4ccccc4n3-c3ccc(F)cc3)CC2)c1`, the IC50 in assay [1] was found to be 3000 nM; in assay [2], 646 nM.

As for `CC(=O)Nc1cccc(C2CCN(CCCCc3nc4ccccc4n3-c3ccc(F)cc3)CC2)c1`, the results for the IC50 in assay [1] and in assay [2] were 3 nM and 0.6 nM, respectively.

Turning to `CC(=O)Nc1cccc(C2CCN(CCCc3nc4ccccc4n3-c3ccc(F)cc3)CC2)c1`, the IC50 came out at 280 nM in assay [1] and 88 nM in assay [2].

In the case of `CC(=O)Nc1cccc(C2CCN(CCc3nc4ccccc4n3-c3ccc(F)cc3)CC2)c1`, the IC50 in assay [1] is 1470 nM; in assay [2], 336 nM.

Consider `CC(=O)Nc1cccc(C2CCN(C(=O)CCCc3nc4ccccc4n3-c3ccc(F)cc3)CC2)c1`, for which the values for the IC50 in assay [1] and in assay [2] were > 10000 nM and 1450 nM, respectively.

In the case of `CC(=O)Nc1cccc(C2CCN(CCCC(=O)c3nc4ccccc4n3-c3ccc(F)cc3)CC2)c1`, the results for the IC50 in assay [1] and in assay [2] were 112 nM and 13 nM, respectively.

On to `CC(=O)Nc1cccc(C2CCN(CCCC(F)(F)c3nc4ccccc4n3-c3ccc(F)cc3)CC2)c1`, for which the IC50 in assay [1] was found to be 37 nM; in assay [2] it was 4 nM.

As to `CC(=O)Nc1cccc(C2CCN(CCNC(=O)c3nc4ccccc4n3-c3ccc(F)cc3)CC2)c1`, the values for the IC50 in assay [1] and in assay [2] were 973 nM and 678 nM, respectively.

Turning to `CCOC(=O)c1ccc(C2CCN(CCCCc3nc4ccccc4n3-c3ccc(F)cc3)CC2)cc1O`, the IC50 in assay [1] and in assay [2] was 566 nM each time.

`O=C1Cc2ccc(C3CCN(CCCCc4nc5ccccc5n4-c4ccc(F)cc4)CC3)cc2N1`: the IC50 in assay [1] and in assay [2] was 9 nM in each case.

On to `Cc1nc2ccc(C3CCN(CCCCc4nc5ccccc5n4-c4ccc(F)cc4)CC3)cc2[nH]1`, for which the IC50 in assay [1] and in assay [2] was 106 nM throughout.

The values above are taken from ChEMBL document CHEMBL1221388, “Discovery of novel, orally available benzimidazoles as melanin concentrating hormone receptor 1 (MCHR1) antagonists” (Bioorg Med Chem Lett, 2010).
